Literature values, collected in patent US20140161876A1, “LIPOSOME-CONTAINING PREPARATION UTILIZING DISSOLUTION AID, AND METHOD FOR PRODUCING SAME” (KONICA MINOLTA, INC., priority 2011, published 2014).
Converted amounts (≈) assume the structure as drawn.

Settings: drug encapsulated, Tables 3 and 4

Solubility in water [mg/mL]	Structure (SMILES)
0.5 (≈ 0.85 mM)	COc1cc([C@@H]2c3cc4c(cc3[C@@H](O[C@@H]3O[C@@H]5CO[C@@H](C)O[C@H]5[C@H](O)[C@H]3O)[C@H]3COC(=O)[C@H]23)OCO4)cc(OC)c1O [etoposide]
20 (≈ 42.2 mM)	Nc1nc(=O)c2c([nH]1)NC[C@H](CNc1ccc(C(=O)N[C@@H](CCC(=O)O)C(=O)O)cc1)N2C=O [levofolinate]
